Columns and labels:
[1] = molecular target: T1, ERα (Homo sapiens, UniProt P03372); assay: ERα-specific U2OS reporter gene assay; assay type: cell-based
T1 sequence (P03372 1-595): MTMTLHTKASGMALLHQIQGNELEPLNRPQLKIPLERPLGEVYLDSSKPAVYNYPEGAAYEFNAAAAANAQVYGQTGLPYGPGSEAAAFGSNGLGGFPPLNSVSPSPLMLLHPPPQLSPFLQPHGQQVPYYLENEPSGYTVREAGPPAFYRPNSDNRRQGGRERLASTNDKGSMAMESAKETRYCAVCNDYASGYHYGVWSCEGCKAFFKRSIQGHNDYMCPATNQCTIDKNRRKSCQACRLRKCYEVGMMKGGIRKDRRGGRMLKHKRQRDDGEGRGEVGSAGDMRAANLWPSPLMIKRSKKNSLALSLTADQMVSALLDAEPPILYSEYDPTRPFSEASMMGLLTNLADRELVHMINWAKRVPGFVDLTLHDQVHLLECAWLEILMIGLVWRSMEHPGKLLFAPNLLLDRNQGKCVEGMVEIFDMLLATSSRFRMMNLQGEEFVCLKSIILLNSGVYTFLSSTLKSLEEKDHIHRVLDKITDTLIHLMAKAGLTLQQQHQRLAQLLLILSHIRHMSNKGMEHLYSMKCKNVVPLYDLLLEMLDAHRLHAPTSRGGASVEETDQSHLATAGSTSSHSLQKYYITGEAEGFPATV

[2] = molecular target: ERβ (Homo sapiens, UniProt Q92731); assay: ERβ-specific U2OS reporter gene assay; assay type: cell-based
Sequence of ERβ (Q92731 whole entry): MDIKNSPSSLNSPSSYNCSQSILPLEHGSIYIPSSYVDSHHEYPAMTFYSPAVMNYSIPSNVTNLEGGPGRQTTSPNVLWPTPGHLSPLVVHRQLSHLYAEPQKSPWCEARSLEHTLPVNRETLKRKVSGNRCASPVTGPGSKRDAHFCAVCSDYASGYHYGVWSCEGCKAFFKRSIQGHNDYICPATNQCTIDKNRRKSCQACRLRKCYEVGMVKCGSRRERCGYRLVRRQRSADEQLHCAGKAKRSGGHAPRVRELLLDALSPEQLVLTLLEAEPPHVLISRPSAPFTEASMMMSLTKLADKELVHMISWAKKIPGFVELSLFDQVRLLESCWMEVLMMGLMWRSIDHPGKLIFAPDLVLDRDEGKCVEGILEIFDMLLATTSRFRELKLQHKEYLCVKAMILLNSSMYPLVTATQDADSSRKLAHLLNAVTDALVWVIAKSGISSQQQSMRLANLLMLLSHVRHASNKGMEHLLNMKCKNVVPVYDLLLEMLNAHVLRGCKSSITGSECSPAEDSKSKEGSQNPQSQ

[3] = tested on: FLAG-ERβ; assay type: cell-based, human; details: in the presence of 1000 ng tetracycline/ml, 24 h

Compound	EC50 [1]	Transcription of the reporter gene in the ERβ-U2OS-Luc cell line [2]	FLAG-ERβ protein expression [3]
CCCc1c(-c2ccc(O)cc2)nn(-c2ccc(O)cc2)c1-c1ccc(O)cc1 [PPT, 4,4′,4″-(4-propyl-[1H]pyrazole-1,3,5-triyl) Tris-phenol]	0.14 nM	unable to induce any transcription	
CN(C)[C@@H]1C(O)=C(C(N)=O)C(=O)[C@@]2(O)C(O)=C3C(=O)c4c(O)cccc4[C@@](C)(O)[C@H]3C[C@@H]12 [tetracycline, Tetracycline]			No detectable FLAG-ERβ protein
